# Data as given in US9345705B2, “Compositions and methods for treating cancer” (Merck Sharp & Dohme Corp., priority 2011, dated 2016).
# Where two headings read alike, the source gives them in different places.
# Assays:
# [1] = test system: A2058 melanoma cancer cell line; assay: Cell proliferation by ATP vialight, 9-point titrations with fixed concentrations of the complementary drug; format: cell-based, human; settings: for EC50: Homo sapiens, 72 hours
# Protocol: To determine the ability of each drug to potentiate the activity of the other, Applicants performed 9-point titrations of each in the added presence of increasing, but fixed, concentrations of the complimentary drug (FIGS. 1A and 1B). Analysis of cell proliferation was determined after 72 hours (3 days) incubation with either DMSO (as control) or the indicated concentrations of MK-1775 and MK-8776 by ATP vialight (Promega). […] EC50 concentrations were calculated (GraphPad Prism, GraphPad Software, San Diego, Calif.).
# Inhibition of WEE1 and CHK1 lead to aberrant CDK1 and/or CDK2 activity, and without wishing to be bound by any theory, this is thought to underlie the potential of either target for having deleterious effects on actively dividing tumor cells. Because of the possible overlap in the MK-1775 and MK-8776 mechanisms of action, Applicants carried out […] synergy experiments.
# [2] = test system: A2058 melanoma, HT-29 colorectal and LoVo colorectal cancer cells; assay: Growth assay (ATP ViaLight) at concentrations with negligible single-agent effect; format: cell-based, human
# Protocol: A2058 melanoma cancer cells were treated with 125 nM MK-1775, 150 nM MK-8776, or both. HT-29 colorectal cancer cells were treated with 125 nM MK-1775, 300 nM MK-8776, or both. LoVo colorectal cancer cells were treated with 40 nM MK-1775, 75 nM MK-8776, or both. FIG. 2A depicts cell proliferation and was scored at either 48 or 72 hours as the percentage of ATP ViaLight® (ViaLight® Assay, Lonza, Basel, Switzerland) of treated samples relative to DMSO treated controls.
# LoVo cells = assay: DNA damage (γH2AX) by flow cytometry in LoVo cells; format: cell-based, human
# Protocol: A2058 melanoma cancer cells were treated with 125 nM MK-1775, 150 nM MK-8776, or both. HT-29 colorectal cancer cells were treated with 125 nM MK-1775, 300 nM MK-8776, or both. LoVo colorectal cancer cells were treated with 40 nM MK-1775, 75 nM MK-8776, or both. […] FIG. 2B depicts DNA damage and was scored at either 24 or 48 hours as the percentage of cells positive for the DNA damage marker γH2AX (histone H2AX phosphorylated at serine 139) determined by flow cytometry.
# LoVo xenograft tumors [3] = assay: Pharmacodynamic DNA damage analysis (Western blot pCHK1 S345, IHC γH2AX) in xenograft tumors; format: in vivo, CD-1 Nu/Nu female mice; settings: 2 days BID, 60 mpk each agent
# Protocol: CD-1 Nu/Nu female mice aged 5-6 weeks (Charles River Laboratories) were inoculated with 5×10^6 LoVo cells in 100 uL (1:1 Matrigel:PBS) subcutaneously (S.C.) into the right flank. […] Three animals from each group were sacrificed via carbon dioxide inhalation at 2 hours, 24 hours, or 48 hours after the 4th and final dose of the 2 day BID schedule. Tumors were resected, split roughly in half, and stored in 10% formalin for immunohistochemistry (IHC) or at −80° C. for Western blot analysis.
# LoVo xenograft tumors [4] = assay: Anti-tumor efficacy in xenograft model of human colorectal cancer; format: in vivo, CD-1 Nu/Nu female mice; settings: study day 18, 3 cycles of 2 day BID dosing, 50 mpk, single agent plus vehicle
# Protocol: The anti-tumor efficacy of this combination was assessed in a xenograft model of human colorectal cancer. CD-1 Nu/Nu female mice aged 5-6 weeks (Charles River Laboratories) were inoculated with 5×10^6 LoVo cells in 100 uL (1:1 Matrigel:PBS) S.C. into the right flank. […] Tumor volume and body weights were recorded bi-weekly.
shift of MK-8776 EC50 curves [1],"reduction of MK-1775 EC50 ([1]; A2058 cells, addition of 150 nM MK-8776) [fold]","EC50 ([1]; A2058 cells, MK-1775 alone, read-out: average EC50 of growth inhibition) [nM]","EC50 ([1]; A2058 cells, addition of 150 nM MK-8776, read-out: average MK-1775 EC50 with added MK-8776) [nM]",Compound,effect on A2058 proliferation by itself [1],maximum cell growth inhibition at the highest concentration of MK-8776 [1],shift in the MK-1775 response curve (sham synergy experiment) [1],shift of the MK-1775 response curve caused by added drug [1],"effect in growth assay, single agent [2]",cells with detectable γH2AX (LoVo cells) [%],pCHK1 S345 by Western blot at 2 hours after the final dose (LoVo xenograft tumors [3]),pCHK1 S345 effect at 24 hours after the final dose (LoVo xenograft tumors [3]),T/C (LoVo xenograft tumors [4]) [%],shift in the MK-1775 response curve (sham synergy experiment) ([1]; MK-1775 titrated over 75 nM of the labelled drug),"effect in growth assay, single agent ([2]; A2058: 125 nM MK-1775, 150 nM MK-8776, HT-29: 125 nM, 300 nM, LoVo: 40 nM, 75 nM, 48 or 72 hours)","cells with detectable γH2AX (LoVo cells; LoVo cells, 24 hour treatment, 40 nM MK-1775, 75 nM MK-8776, or both) [%]"
leftward shifts in EC50 curves,–,–,–,"Cn1cc(-c2cnn3c(N)c(Br)c([C@@H]4CCCNC4)nc23)cn1 [MK-8776, (R)-(−)-6-Bromo-3-(1-methyl-1H-pyrazol-4-yl)-5-piperidin-3-yl-pyrazolo[1,5-a]pyrimidin-7-ylamine]",do not effect A2058 proliferation,dose-dependent increase,robust potency shift,leftward shift of the MK-1775 response curve,negligible effect,5,transient increase,lost,52,–,–,–
–,5,225,45,"C=CCn1c(=O)c2cnc(Nc3ccc(N4CCN(C)CC4)cc3)nc2n1-c1cccc(C(C)(C)O)n1 [MK-1775, 2-allyl-1-[6-(1-hydroxy-1-methylethyl)pyridin-2-yl]-6-{[4-(4-methylpiperazin-1-yl)phenyl]amino}-1,2-dihydro-3H-pyrazolo[3,4-d]pyrimidin-3-one]",–,–,–,–,–,–,transient increase,lost,42,did not cause a shift in the response curve,negligible effect,6
